According to patent publication US8846673B2, “Azaindazoles as kinase inhibitors and use thereof” (Bristol-Myers Squibb Company, priority 2009, dated 2014):

Target: human recombinant Btk (Homo sapiens (Human), UniProt Q06187)
Assay: Human Recombinant Btk Enzyme Assay (LLE_Btk)
Type: biochemical
Conditions: human recombinant Btk 1 nM, ATP 20 μM, 60 min room temperature
Method: Human Recombinant Btk Enzyme Assay
After incubating at room temperature for 60 min, the reaction was terminated by adding 45 μl of 35 mM EDTA to each sample. The reaction mixture was analyzed on the Caliper LABCHIP® 3000 (Caliper, Hopkinton, Mass.) by electrophoretic separation of the fluorescent substrate and phosphorylated product. […] Compounds were dissolved at 10 mM in dimethylsulfoxide (DMSO) and evaluated at eleven concentrations.

human recombinant Btk, sequence (Q06187 whole entry): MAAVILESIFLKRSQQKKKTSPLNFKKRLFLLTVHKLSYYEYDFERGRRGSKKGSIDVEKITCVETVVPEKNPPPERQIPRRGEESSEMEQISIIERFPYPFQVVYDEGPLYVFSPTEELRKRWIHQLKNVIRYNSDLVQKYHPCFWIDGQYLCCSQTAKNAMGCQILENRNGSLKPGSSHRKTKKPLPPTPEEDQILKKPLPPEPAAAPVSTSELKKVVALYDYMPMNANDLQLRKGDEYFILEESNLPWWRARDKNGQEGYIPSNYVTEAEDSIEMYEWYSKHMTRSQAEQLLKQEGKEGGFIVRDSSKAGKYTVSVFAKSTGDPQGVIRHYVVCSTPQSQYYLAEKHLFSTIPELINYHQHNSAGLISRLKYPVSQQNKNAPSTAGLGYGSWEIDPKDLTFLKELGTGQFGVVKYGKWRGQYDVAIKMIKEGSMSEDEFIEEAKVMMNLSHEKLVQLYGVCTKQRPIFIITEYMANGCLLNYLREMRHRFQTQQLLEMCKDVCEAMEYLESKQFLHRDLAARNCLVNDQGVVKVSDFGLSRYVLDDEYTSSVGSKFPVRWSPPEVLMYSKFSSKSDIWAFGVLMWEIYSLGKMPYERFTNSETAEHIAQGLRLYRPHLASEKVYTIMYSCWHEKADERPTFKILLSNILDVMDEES

Which IC50 does the source give for `Nc1n[nH]c2c(-c3ccc4[nH]ccc4c3)ncc(-c3ccc(Oc4ccccc4)cc3)c12` [Example 95, 7-(1H-Indol-5-yl)-4-(4-phenoxyphenyl)-1H-pyrazolo[3,4-c]pyridin-3-amine] here?
Its IC50 is 250 nM.

For `CC(C)Oc1ccc(-c2cncc3[nH]nc(N)c23)cc1` [Example 43, 4-(4-Isopropoxyphenyl)-1H-pyrazolo[3,4-c]pyridin-3-amine], which IC50 is on record?
The IC50 was 9310 nM.

How did the IC50 turn out when `Cc1csc(NC(=O)NC2CCN(c3cc(-c4ccc(Oc5ccccc5)cc4)c4c(N)n[nH]c4n3)C2)n1` (stereo not drawn) [Example 31, 1-(1-(3-Amino-4-(4-phenoxyphenyl)-1H-pyrazolo[3,4-b]pyridin-6-yl)-3-pyrrolidinyl)-3-(4-methyl-1,3-thiazol-2-yl)urea] was run?
The IC50 was 9410 nM.

How did the IC50 turn out when `Nc1n[nH]c2c(-c3cccc(OC(F)(F)F)c3)ncc(-c3ccc(Oc4ccccc4)cc3)c12` [Example 113, 4-(4-Phenoxyphenyl)-7-(3-(trifluoromethoxy)phenyl)-1H-pyrazolo[3,4-c]pyridin-3-amine] was run?
Its IC50 is 13800 nM.

Which IC50 does the source give for `Nc1n[nH]c2cncc(-c3ccc(C(=O)N4CCCC4)cc3)c12` [Example 47, 4-(4-(1-Pyrrolidinylcarbonyl)phenyl)-1H-pyrazolo[3,4-c]pyridin-3-amine] here?
Its IC50 is 40600 nM.

For `COc1ccc(-c2cnc(Nc3ccccc3C)c3[nH]nc(N)c23)cc1` [Example 132, 4-(4-Methoxyphenyl)-N^7-(2-methylphenyl)-1H-pyrazolo[3,4-c]pyridine-3,7-diamine], which IC50 is on record?
Its IC50 is 260 nM.

For `CN(C)C(=O)Cn1ccc(Nc2cc3[nH]nc(N)c3c(-c3ccc(Oc4ccccc4)cc3)n2)n1` [Example 249, 2-(3-((3-Amino-4-(4-phenoxyphenyl)-1H-pyrazolo[4,3-c]pyridin-6-yl)amino)-1H-pyrazol-1-yl)-N,N-dimethylacetamide], which IC50 is on record?
Its IC50 is 3 nM.

How did the IC50 turn out when `COc1cccc(-c2cnc(Nc3ccccc3Cl)c3[nH]nc(N)c23)c1` [Example 130, N^7-(2-Chlorophenyl)-4-(3-methoxyphenyl)-1H-pyrazolo[3,4-c]pyridine-3,7-diamine] was run?
The IC50 was 230 nM.

How did the IC50 turn out when `Nc1n[nH]c2c(-c3ccc(Cl)c(Cl)c3)ncc(-c3ccc(Oc4ccccc4)cc3)c12` [Example 82, 7-(3,4-Dichlorophenyl)-4-(4-phenoxyphenyl)-1H-pyrazolo[3,4-c]pyridin-3-amine] was run?
Its IC50 is 9180 nM.

`Nc1n[nH]c2c(-c3ccc(NC(=O)c4ccccc4)cc3)ncc(-c3ccc(Oc4ccccc4)cc3)c12` [Example 61, N-(4-(3-Amino-4-(4-phenoxyphenyl)-1H-pyrazolo[3,4-c]pyridin-7-yl)phenyl)benzamide] was tested. Which IC50 did it give?
The IC50 was 14900 nM.

With `Nc1n[nH]c2c(-c3ccccn3)cnc(-c3ccc(Oc4ccccc4)cc3)c12` [Example 225, 4-(4-Phenoxyphenyl)-7-(2-pyridinyl)-1H-pyrazolo[4,3-c]pyridin-3-amine] as the molecule, how does the IC50 read?
The IC50 was 1 nM.

How did the IC50 turn out when `Nc1n[nH]c2c(-c3cccc(C(F)(F)F)c3)ncc(-c3ccc(Oc4ccccc4)cc3)c12` [Example 108, 4-(4-Phenoxyphenyl)-7-(3-(trifluoromethyl)phenyl)-1H-pyrazolo[3,4-c]pyridin-3-amine] was run?
Its IC50 is 16100 nM.

For `Cc1ccccc1-c1ncc(-c2ccc(Oc3ccccc3)cc2)c2c(N)n[nH]c12` [Example 107, 7-(2-Methylphenyl)-4-(4-phenoxyphenyl)-1H-pyrazolo[3,4-c]pyridin-3-amine], which IC50 is on record?
The IC50 was 12700 nM.

`C=CC(=O)N1CCCC(c2cc3[nH]nc(N)c3c(-c3ccc(Oc4ccccc4)cc3)n2)C1` (stereo not drawn) [Example 237, 6-(1-Acryloyl-3-piperidinyl)-4-(4-phenoxyphenyl)-1H-pyrazolo[4,3-c]pyridin-3-amine] was tested. Which IC50 did it give?
The IC50 was 4 nM.

Which IC50 does the source give for `CS(=O)(=O)Nc1cccc(-c2ncc(-c3ccc(Oc4ccccc4)cc3)c3c(N)n[nH]c23)c1` [Example 62, N-(3-(3-Amino-4-(4-phenoxyphenyl)-1H-pyrazolo[3,4-c]pyridin-7-yl)phenyl) methanesulfonamide] here?
The IC50 was 270 nM.

For `Cc1ccccc1Nc1ncc(-c2cccc(OC(C)C)c2)c2c(N)n[nH]c12` [Example 137, 4-(3-Isopropoxyphenyl)-N^7-(2-methylphenyl)-1H-pyrazolo[3,4-c]pyridine-3,7-diamine], which IC50 is on record?
The IC50 was 240 nM.

For `COc1cccc(-c2cnc(Nc3ccccc3)c3[nH]nc(N)c23)c1` [Example 128, 4-(3-Methoxyphenyl)-N^7-phenyl-1H-pyrazolo[3,4-c]pyridine-3,7-diamine], which IC50 is on record?
The IC50 was 290 nM.

Which IC50 does the source give for `CC(C)COc1cccc(-c2ncc(-c3ccc(Oc4ccccc4)cc3)c3c(N)n[nH]c23)c1` [Example 102, 7-(3-Isobutoxyphenyl)-4-(4-phenoxyphenyl)-1H-pyrazolo[3,4-c]pyridin-3-amine] here?
Its IC50 is 14000 nM.

`COC(=O)C(=O)N1CCCC(c2cc3[nH]nc(N)c3c(-c3ccc(Oc4ccccc4)cc3)n2)C1` (stereo not drawn) [Example 238, Methyl(3-(3-amino-4-(4-phenoxyphenyl)-1H-pyrazolo[4,3-c]pyridin-6-yl)-1-piperidinyl)(oxo)acetate] was tested. Which IC50 did it give?
Its IC50 is 2 nM.

With `Nc1n[nH]c2nc(-c3cccs3)nc(-c3ccc(Oc4ccccc4)cc3)c12` [Example 120, 4-(4-Phenoxyphenyl)-6-(2-thienyl)-1H-pyrazolo[3,4-δ]pyrimidin-3-amine] as the molecule, how does the IC50 read?
Its IC50 is 240 nM.

How did the IC50 turn out when `Nc1n[nH]c2cc(C3CCCN(C(=O)Nc4ccccc4)C3)nc(-c3ccc(Oc4ccccc4)cc3)c12` (stereo not drawn) [Example 236, 3-(3-Amino-4-(4-phenoxyphenyl)-1H-pyrazolo[4,3-c]pyridin-6-yl)-N-phenyl-1-piperidinecarboxamide] was run?
The IC50 was 3 nM.

With `Cc1cccc(Oc2ccc(-c3cc(C4CCCC4)nc4[nH]nc(N)c34)cc2)c1` [Example 5, 6-Cyclopentyl-4-(4-(3-methylphenoxy)phenyl)-1H-pyrazolo[3,4-b]pyridin-3-amine] as the molecule, how does the IC50 read?
Its IC50 is 290 nM.

`CS(=O)(=O)Nc1ccc(-c2ncc(-c3ccc(Oc4ccccc4)cc3)c3c(N)n[nH]c23)cc1` [Example 96, N-(4-(3-Amino-4-(4-phenoxyphenyl)-1H-pyrazolo[3,4-c]pyridin-7-yl)phenyl)methanesulfonamide] was tested. Which IC50 did it give?
The IC50 was 280 nM.

How did the IC50 turn out when `Nc1n[nH]c2cc(C3CCN(C(=O)Nc4ccccc4)CC3)nc(-c3ccc(Oc4ccccc4)cc3)c12` [Example 242, 4-(3-Amino-4-(4-phenoxyphenyl)-1H-pyrazolo[4,3-c]pyridin-6-yl)-N-phenyl-1-piperidinecarboxamide] was run?
The IC50 was 2 nM.

Which IC50 does the source give for `Nc1n[nH]c2cc(-c3ccc(-c4nnn[nH]4)cc3)nc(-c3ccc(Oc4ccccc4)cc3)c12` [Example 223, 4-(4-Phenoxyphenyl)-6-(4-(1H-tetrazol-5-yl)phenyl)-1H-pyrazolo[4,3-c]pyridin-3-amine] here?
The IC50 was 2 nM.

`Nc1n[nH]c2cncc(-c3ccc(OC4CCCC4)cc3)c12` [Example 44, 4-(4-(Cyclopentyloxy)phenyl)-1H-pyrazolo[3,4-c]pyridin-3-amine] was tested. Which IC50 did it give?
The IC50 was 9490 nM.

Target: Btk (pY551) in Ramos cells (Homo sapiens (Human), UniProt Q06187)
Assay: Btk Phosphorylation Assay
Type: cell-based
Conditions: 1 hr preincubation, stimulated with anti-human IgM+IgG 50 μg/mL for 2 min
Method: Btk Phosphorylation Assay
Ramos cells (˜6×10^6 cells/10 were incubated in the presence of Btk inhibitors for 1 hr at 37° C. before being stimulated with anti-human IgM+IgG (F(ab′)2 fragment, Jackson ImmunoResearch, Catalog No. 109-006-127) at 50 μg/mL for exactly 2 min at 37° C. Cells were immediately fixed by adding an equal volume of pre-warmed BD Phosflow Fix buffer I (BD Biosciences, catalog number 557870) to the cell suspension. After incubating at 37° C. for 10 minutes, the cells were washed once with 3 mL FACS washing buffer (1% FBS/PBS) and permeabilized by adding 0.5 mL of cold BD Phosflow Penn Buffer III (BD Biosciences, Catalog No. 558050) and incubating for 30 minutes on ice. The cells were washed an additional two times with 3 mL BD FACS washing buffer, re-suspended in 100 μL FACS washing buffer, stained with 20 μL, Alexa647 anti-Btk (pY551) (BD Biosciences, Catalog No. 558134), incubated at room temperature for 30 minutes in the dark, and washed once with 3 ml of FACS washing buffer. The cells were re-suspended in 400 μl FACS wash buffer and analyzed using FACSCalibur (BD Biosciences). Median fluorescent intensity (MFI) on Alexa 647 (FL-4) data were collected and used for calculations of inhibition.

Btk (pY551) in Ramos cells, sequence (Q06187 whole entry): as above

For `Nc1n[nH]c2nccc(-c3ccc(Oc4ccccc4)cc3)c12` [Example 6, 4-(4-Phenoxyphenyl)-1H-pyrazolo[3,4-b]pyridin-3-amine], which IC50 is on record?
Its IC50 is 320 nM.
